Consider three compounds from ChEMBL document CHEMBL3639306, “1H-imidazo[4,5-c]quinolines” (2014).

The structures appear in SMILES notation.

The target of the assay is T1, 3-phosphoinositide-dependent protein kinase 1 (Homo sapiens, UniProt O15530).
T1 sequence (O15530 whole entry): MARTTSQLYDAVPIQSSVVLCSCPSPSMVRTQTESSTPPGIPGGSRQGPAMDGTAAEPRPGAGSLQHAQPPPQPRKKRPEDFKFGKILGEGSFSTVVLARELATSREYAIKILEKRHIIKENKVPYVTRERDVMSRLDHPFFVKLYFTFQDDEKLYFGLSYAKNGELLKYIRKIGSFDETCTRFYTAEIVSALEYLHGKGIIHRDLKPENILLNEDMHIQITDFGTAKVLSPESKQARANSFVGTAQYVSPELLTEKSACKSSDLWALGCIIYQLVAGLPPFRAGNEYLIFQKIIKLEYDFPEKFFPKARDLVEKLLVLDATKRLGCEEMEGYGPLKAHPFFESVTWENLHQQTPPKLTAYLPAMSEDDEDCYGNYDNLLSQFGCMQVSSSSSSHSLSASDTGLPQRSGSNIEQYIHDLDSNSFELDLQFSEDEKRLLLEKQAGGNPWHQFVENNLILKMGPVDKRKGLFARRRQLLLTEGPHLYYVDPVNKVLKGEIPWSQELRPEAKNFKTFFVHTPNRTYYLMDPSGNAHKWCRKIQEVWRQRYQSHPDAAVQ
In words: Kinase Assay: Recombinant human PDK1 enzyme (aa 52-556) linked at its N-terminal end to His6 is isolated from baculovirus-infected insect cells. Purified enzyme may be obtained for example from the University of Dundee, Scotland. The following components are combined in a well of a 96-well round-based dish (Greiner bio-one, No. 650101): 1. 15 uL of compound to be tested in varying concentrations (e.g. starting at 10 uM, and diluted in steps of 1:5) in APT buffer (50 mM Tris/Cl pH7.5; 0.05% beta -mercaptoethanol; 10 mM Mg-acetate; 0.0166% Tween 20; 3.33% DMSO) 2. 15 uL His6-PDK1 (aa 52-556) 3.33 ng/well) and PDKtide (KTFCGTPEYLAPEVRRE […]), synthesised by Pepceuticals Limited, Nottingham, United Kingdom; 25 uM final concentration); His6-PDK1 and PDKtide are together diluted accordingly in assay buffer (50 mM tris pH 7.5, 0.05% beta -mercaptoethanol, 10 mM Mg-acetate); PDKtide is present in this mixture as an 83.3 uM solution.
For `Cc1nc2cnc3ccc(C#CCNC(=O)c4cc(Cl)nn(Cc5ccc(F)c(F)c5)c4=O)cc3c2n1[C@H]1CCCN(C)C1`, the IC50 was determined as 111 nM.
For `Cn1c(CCO)nc2cnc3ccc(C#CCNC(=O)c4cncn(Cc5ccc(F)c(F)c5)c4=O)cc3c21`, the IC50 stood at 14 nM.
`O=C(NCC#Cc1ccc2ncc3nc[nH]c3c2c1)c1cccn(Cc2ccc(F)c(F)c2)c1=O`: the IC50 turned out to be 4 nM.

As a reminder, the IC50 is the concentration that inhibits the measured activity by half.
